{"source": "patent US7053053B2", "about": "“Humanin-like peptide and use thereof” (Takeda Chemical Industries, Ltd., priority 2001, dated 2006)", "key": {"[1]": {"system": "rat adrenal medulla-derived pheochromocytoma cell PC12h", "assay": "Inhibition of glutamic acid-induced cell death of PC12h cells (LDH activity of cell extract)", "format": "cell-based", "conditions": "for cell survival ratio: 1 mM glutamic acid, 72 hrs, survival in glutamic acid non-added plot = 100%, peptide not-added plot 34.0%", "procedure": "Inhibitory Activity of the Humanin-Like Peptide against Glutanic Acid-Induced Cell Death of Rat Adrenal Medulla-Derived Pheochromocytoma Cell PC12h\nPC12h cells (supplied by Prof. Hiroshi Hatanaka, Institute for Protein Research, Osaka University; Hatanaka, H., Brain Research 222: 225–233, 1981) were plated at a density of 2×10^4 cells/cm^2 in collagen-coated 96-well plates (Iwaki) containing Dulbecco's modified Eagle's medium (hereinafter referred to as “DMEM”) containing 10% fetal bovine serum and 5% horse serum. After 24 hrs, the medium was exchanged for 100 μl of DMEM containing […] HEPES (pH 7.5). At the same time, various concentrations of the humanin-like peptide prepared in Example 2 (SEQ ID NO: 4) and glutamic acid to give a concentration of 1 mM were added to the medium. After 72 hrs, cells were lysed with 100 μl of phosphate buffered saline containing 0.2% Tween 20. Then, the lactate dehydrogenase (LDH) activity of the cell extract was determined with LDH Cytotoxic Test WAKO (Wako Purechemical Industries)."}, "[2]": {"system": "nerve cells into which the causative gene of familial Alzheimer's disease is introduced", "conditions": "nerve cells with the causative gene of familial Alzheimer's disease introduced; Proc. Natl. Acad. Sci. USA 98: 6336–6341, 2001; cited from earlier work"}, "[3]": {"system": "nerve cells", "conditions": "induced by the addition of β amyloid; Proc. Natl. Acad. Sci. USA 98: 6336–6341, 2001; cited from earlier work"}}, "data": [{"substance": "humanin-like peptide: polypeptide comprising the amino acid sequence as shown in SEQ ID NO: 4; 24 residues, 6 different from humanin; synthesised in Example 2 (MARRGFSCLLLSTTATDLPVKRRT; Human)", "values": [{"measurement": "glutamic acid-induced cell death", "setting": "[1]; PC12h cells, conclusion in words", "result": "inhibited"}, {"measurement": "cell survival ratio", "setting": "[1]; humanin-like peptide 1 μM", "result": 59.3, "unit": "%"}, {"measurement": "cell survival ratio", "setting": "[1]; humanin-like peptide 10 μM", "result": 74.6, "unit": "%"}]}, {"substance": "humanin: peptide consisting of 24 residues (WO 01/21787), encoded by a gene cloned from the occipital lobe by Hashimoto et al. (MAPRGFSCLLLLTSEIDLPVKRRA; Humanin; UniProt Q8IVG9 1-24, looked up)", "values": [{"measurement": "death of nerve cells", "setting": "[2]", "result": "inhibited"}, {"measurement": "death of nerve cells", "setting": "[3]", "result": "inhibited"}]}]}
